PubChem BioAssay (NCI)
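Five compound concentrations were applied to cells in 96-well plates for 48 hours; endpoints were derived by simple linear interpolation of the resulting dose-response curve. TGI denotes the concentration required for complete inhibition of growth.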

Columns and labels:
Test in all cases: NCI tumour cell line growth inhibition, 48 h
NCI-H460 lung = system: NCI-H460 lung
PC-3 prostate = system: PC-3 prostate
HS 578T breast = system: HS 578T breast
NCI-H522 lung = system: NCI-H522 lung
SNB-19 CNS = system: SNB-19 CNS
SK-OV-3 ovarian = system: SK-OV-3 ovarian
NCI-H226 lung = system: NCI-H226 lung
TK-10 renal = system: TK-10 renal
HCC-2998 colon = system: HCC-2998 colon
LOX IMVI melanoma = system: LOX IMVI melanoma
HCT-15 colon = system: HCT-15 colon
SNB-75 CNS = system: SNB-75 CNS
T-47D breast = system: T-47D breast
SK-MEL-2 melanoma = system: SK-MEL-2 melanoma
MDA-N = system: MDA-N
RXF 393 renal = system: RXF 393 renal
UACC-257 melanoma = system: UACC-257 melanoma
UO-31 renal = system: UO-31 renal
SK-MEL-5 melanoma = system: SK-MEL-5 melanoma
K-562 leukemia = system: K-562 leukemia
MOLT-4 leukemia = system: MOLT-4 leukemia
HOP-92 NSCLC = system: HOP-92 NSCLC
RPMI-8226 leukemia = system: RPMI-8226 leukemia
CAKI-1 renal = system: CAKI-1 renal
HCT-116 colon = system: HCT-116 colon
SK-MEL-28 melanoma = system: SK-MEL-28 melanoma
A549 NSCLC = system: A549 NSCLC
HT29 colon = system: HT29 colon
HOP-62 NSCLC = system: HOP-62 NSCLC
SR leukemia = system: SR leukemia
M14 melanoma = system: M14 melanoma
OVCAR-3 ovarian = system: OVCAR-3 ovarian
786-0 renal = system: 786-0 renal
OVCAR-4 ovarian = system: OVCAR-4 ovarian
SF-295 CNS = system: SF-295 CNS
SW-620 colon = system: SW-620 colon
NCI/ADR-RES ovarian = system: NCI/ADR-RES ovarian
SN12C renal = system: SN12C renal
BT-549 breast = system: BT-549 breast
ACHN renal = system: ACHN renal
HL-60(TB) leukemia = system: HL-60(TB) leukemia
A498 renal = system: A498 renal
KM12 colon = system: KM12 colon
SF-539 CNS = system: SF-539 CNS
EKVX NSCLC = system: EKVX NSCLC
IGROV1 ovarian = system: IGROV1 ovarian
OVCAR-5 ovarian = system: OVCAR-5 ovarian
OVCAR-8 ovarian = system: OVCAR-8 ovarian
DU-145 prostate = system: DU-145 prostate
MALME-3M melanoma = system: MALME-3M melanoma
SF-268 CNS = system: SF-268 CNS
NCI-H23 lung = system: NCI-H23 lung
COLO 205 colon = system: COLO 205 colon
MCF7 breast = system: MCF7 breast
CCRF-CEM leukemia = system: CCRF-CEM leukemia
U251 CNS = system: U251 CNS
UACC-62 melanoma = system: UACC-62 melanoma
MDA-MB-435 = system: MDA-MB-435
MDA-MB-231 breast = system: MDA-MB-231 breast

For `Cn1c2ccc3cc2c(=S)c2cc(ccc21)OCCOCCOCCOCCOCCOCCO3`, the TGI (NCI-H460 lung) was > 10 µM, the TGI (PC-3 prostate) was > 10 µM and the TGI (HS 578T breast) was > 10 µM. The TGI (NCI-H522 lung) was > 10 µM, the TGI (SNB-19 CNS) was > 10 µM and the TGI (SK-OV-3 ovarian) was > 10 µM. For the same compound, the TGI (NCI-H226 lung) was > 10 µM, the TGI (TK-10 renal) was > 10 µM and the TGI (HCC-2998 colon) was > 10 µM. For the same compound, the TGI (LOX IMVI melanoma) was > 10 µM, the TGI (HCT-15 colon) was > 10 µM and the TGI (SNB-75 CNS) was > 10 µM. The TGI (T-47D breast) was > 10 µM, the TGI (SK-MEL-2 melanoma) was > 10 µM and the TGI (MDA-N) was > 10 µM. The TGI (RXF 393 renal) was > 10 µM, the TGI (UACC-257 melanoma) was > 10 µM and the TGI (UO-31 renal) was > 10 µM. For the same compound, the TGI (SK-MEL-5 melanoma) was > 10 µM, the TGI (K-562 leukemia) was > 10 µM and the TGI (MOLT-4 leukemia) was > 10 µM. The TGI (HOP-92 NSCLC) was > 10 µM, the TGI (RPMI-8226 leukemia) was > 10 µM and the TGI (CAKI-1 renal) was > 10 µM. For the same compound, the TGI (HCT-116 colon) was > 10 µM, the TGI (SK-MEL-28 melanoma) was > 10 µM and the TGI (A549 NSCLC) was > 10 µM. For the same compound, the TGI (HT29 colon) was > 10 µM, the TGI (HOP-62 NSCLC) was > 10 µM and the TGI (SR leukemia) was > 10 µM. The TGI (M14 melanoma) was > 10 µM, the TGI (OVCAR-3 ovarian) was > 10 µM and the TGI (786-0 renal) was > 10 µM. For the same compound, the TGI (OVCAR-4 ovarian) was > 10 µM, the TGI (SF-295 CNS) was > 10 µM and the TGI (SW-620 colon) was > 10 µM. The TGI (NCI/ADR-RES ovarian) was > 10 µM, the TGI (SN12C renal) was > 10 µM and the TGI (BT-549 breast) was > 10 µM. The TGI (ACHN renal) was > 10 µM, the TGI (HL-60(TB) leukemia) was > 10 µM and the TGI (A498 renal) was > 10 µM. For the same compound, the TGI (KM12 colon) was > 10 µM, the TGI (SF-539 CNS) was > 10 µM and the TGI (EKVX NSCLC) was > 10 µM. For the same compound, the TGI (IGROV1 ovarian) was > 10 µM, the TGI (OVCAR-5 ovarian) was > 10 µM and the TGI (OVCAR-8 ovarian) was > 10 µM. For the same compound, the TGI (DU-145 prostate) was > 10 µM, the TGI (MALME-3M melanoma) was > 10 µM and the TGI (SF-268 CNS) was > 10 µM. For the same compound, the TGI (NCI-H23 lung) was > 10 µM, the TGI (COLO 205 colon) was > 10 µM and the TGI (MCF7 breast) was > 10 µM. The TGI (CCRF-CEM leukemia) was > 10 µM and the TGI (U251 CNS) was > 10 µM.
For `C=C1CCN2CC[C@@H](OC(=O)/C(C)=C\C)[C@@H]12`, the TGI (NCI-H460 lung) was > 100 µM, the TGI (PC-3 prostate) was > 100 µM and the TGI (HS 578T breast) was > 100 µM. For the same compound, the TGI (NCI-H522 lung) was > 100 µM, the TGI (SNB-19 CNS) was > 100 µM and the TGI (SK-OV-3 ovarian) was > 100 µM. For the same compound, the TGI (NCI-H226 lung) was > 100 µM, the TGI (TK-10 renal) was > 100 µM and the TGI (HCC-2998 colon) was > 100 µM. For the same compound, the TGI (LOX IMVI melanoma) was > 100 µM, the TGI (HCT-15 colon) was > 100 µM and the TGI (SNB-75 CNS) was > 100 µM. For the same compound, the TGI (T-47D breast) was > 100 µM, the TGI (SK-MEL-2 melanoma) was > 100 µM and the TGI (MDA-N) was > 100 µM. For the same compound, the TGI (RXF 393 renal) was > 100 µM, the TGI (UACC-257 melanoma) was > 100 µM and the TGI (UO-31 renal) was > 100 µM. The TGI (UACC-62 melanoma) was > 100 µM, the TGI (SK-MEL-5 melanoma) was > 100 µM and the TGI (K-562 leukemia) was > 100 µM. For the same compound, the TGI (MDA-MB-435) was > 100 µM, the TGI (MOLT-4 leukemia) was > 100 µM and the TGI (HOP-92 NSCLC) was > 100 µM. For the same compound, the TGI (RPMI-8226 leukemia) was > 100 µM, the TGI (CAKI-1 renal) was > 100 µM and the TGI (HCT-116 colon) was > 100 µM. The TGI (SK-MEL-28 melanoma) was > 100 µM, the TGI (A549 NSCLC) was > 100 µM and the TGI (HT29 colon) was > 100 µM. The TGI (HOP-62 NSCLC) was > 100 µM, the TGI (SR leukemia) was > 100 µM and the TGI (M14 melanoma) was > 100 µM. For the same compound, the TGI (OVCAR-3 ovarian) was > 100 µM, the TGI (786-0 renal) was > 100 µM and the TGI (OVCAR-4 ovarian) was > 100 µM. For the same compound, the TGI (MDA-MB-231 breast) was > 100 µM, the TGI (SF-295 CNS) was > 100 µM and the TGI (SW-620 colon) was > 100 µM. For the same compound, the TGI (NCI/ADR-RES ovarian) was > 100 µM, the TGI (SN12C renal) was > 100 µM and the TGI (ACHN renal) was > 100 µM. The TGI (A498 renal) was > 100 µM, the TGI (KM12 colon) was > 100 µM and the TGI (SF-539 CNS) was > 100 µM. The TGI (EKVX NSCLC) was > 100 µM, the TGI (IGROV1 ovarian) was > 100 µM and the TGI (OVCAR-5 ovarian) was > 100 µM. For the same compound, the TGI (OVCAR-8 ovarian) was > 100 µM, the TGI (DU-145 prostate) was > 100 µM and the TGI (MALME-3M melanoma) was > 100 µM. The TGI (SF-268 CNS) was > 100 µM, the TGI (NCI-H23 lung) was > 100 µM and the TGI (COLO 205 colon) was > 100 µM. The TGI (MCF7 breast) was > 100 µM, the TGI (CCRF-CEM leukemia) was > 100 µM and the TGI (U251 CNS) was > 100 µM.
